This assay concerns the target Glutamate--tRNA ligase (Escherichia coli) (UniProt P04805). The assay can be described thus: Compound was tested for the inhibition of Escherichia coli glutamyl-t-RNA synthetase; NI means No inhibition.

Chain of Glutamate--tRNA ligase (Escherichia coli) (P04805 whole entry, looked up): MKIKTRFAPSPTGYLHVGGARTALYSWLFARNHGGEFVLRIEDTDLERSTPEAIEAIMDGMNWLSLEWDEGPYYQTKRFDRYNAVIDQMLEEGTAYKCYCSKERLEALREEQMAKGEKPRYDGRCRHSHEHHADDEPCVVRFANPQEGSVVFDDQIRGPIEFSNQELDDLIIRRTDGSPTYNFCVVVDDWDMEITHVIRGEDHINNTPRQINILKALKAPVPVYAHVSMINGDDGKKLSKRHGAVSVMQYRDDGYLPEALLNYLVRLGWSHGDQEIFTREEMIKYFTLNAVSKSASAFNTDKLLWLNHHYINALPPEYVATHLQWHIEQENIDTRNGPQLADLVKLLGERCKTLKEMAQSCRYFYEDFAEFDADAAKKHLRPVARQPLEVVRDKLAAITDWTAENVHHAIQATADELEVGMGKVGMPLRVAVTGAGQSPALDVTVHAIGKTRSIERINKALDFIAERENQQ

Regarding `CCCCCCCCOC(=O)C(N)CCC(=O)O` (stereo unspecified), the Ki entry is listed as “Not Active”.

(Values after ChEMBL document CHEMBL1130528, “Synthesis of inhibitors of glutamyl-tRNA synthetase” (Bioorg Med Chem Lett, 1997).)
